Measurements: ChEMBL document CHEMBL1909046, “DrugMatrix in vitro pharmacology data”

Key:
Cytochrome P450 2C19 = Cytochrome P450 2C19 (Homo sapiens, UniProt P33261); settings: bti-tn-5b1-4; further: in other assays of this panel Not Active means under 50% inhibition at 10 µM
Melanocortin receptor 4 = Melanocortin receptor 4 (Homo sapiens, UniProt P32245); format: cell membranes, Membrane; settings: hek293; further: in other assays of this panel Not Active means under 50% inhibition at 10 µM
[1] = target: 5-hydroxytryptamine receptor 6 (Homo sapiens, UniProt P50406); format: cell membranes, HeLa, Membrane; further: in other assays of this panel Not Active means under 50% inhibition at 10 µM
Calcitonin receptor = target: T1, Calcitonin receptor (Homo sapiens, UniProt P30988); format: cell membranes, Membrane; settings: t47d; further: in other assays of this panel Not Active means under 50% inhibition at 10 µM
T1 sequence (P30988 whole entry): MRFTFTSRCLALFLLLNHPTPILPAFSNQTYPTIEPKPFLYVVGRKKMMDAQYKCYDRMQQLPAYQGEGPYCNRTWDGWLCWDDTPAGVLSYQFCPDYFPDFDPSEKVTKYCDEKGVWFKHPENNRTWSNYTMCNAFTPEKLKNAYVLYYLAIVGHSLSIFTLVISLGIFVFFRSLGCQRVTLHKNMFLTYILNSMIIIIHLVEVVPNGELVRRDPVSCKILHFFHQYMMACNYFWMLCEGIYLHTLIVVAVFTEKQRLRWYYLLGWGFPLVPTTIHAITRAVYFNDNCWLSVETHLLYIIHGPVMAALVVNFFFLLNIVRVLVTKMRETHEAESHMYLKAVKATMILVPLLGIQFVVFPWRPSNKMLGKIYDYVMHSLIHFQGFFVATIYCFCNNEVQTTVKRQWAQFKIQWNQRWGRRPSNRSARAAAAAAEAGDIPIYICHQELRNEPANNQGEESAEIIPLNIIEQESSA

[2] = DRUGMATRIX: Phosphodiesterase PDE4 enzyme inhibition (substrate: [3H]cAMP + cAMP); settings: u-937; Not Active = under 50% inhibition at 10 µM
[3] = target: cGMP-specific 3',5'-cyclic phosphodiesterase (Homo sapiens, UniProt O76074); experiment: DRUGMATRIX: Phosphodiesterase PDE5 enzyme inhibition (substrate: [3H]cGMP + cGMP); format: tissue-based; settings: platelet; Not Active = under 50% inhibition at 10 µM
[4] = target: T2, Receptor-type tyrosine-protein phosphatase C (Homo sapiens, UniProt P08575); design: species or system Escherichia coli
T2 sequence (P08575 whole entry): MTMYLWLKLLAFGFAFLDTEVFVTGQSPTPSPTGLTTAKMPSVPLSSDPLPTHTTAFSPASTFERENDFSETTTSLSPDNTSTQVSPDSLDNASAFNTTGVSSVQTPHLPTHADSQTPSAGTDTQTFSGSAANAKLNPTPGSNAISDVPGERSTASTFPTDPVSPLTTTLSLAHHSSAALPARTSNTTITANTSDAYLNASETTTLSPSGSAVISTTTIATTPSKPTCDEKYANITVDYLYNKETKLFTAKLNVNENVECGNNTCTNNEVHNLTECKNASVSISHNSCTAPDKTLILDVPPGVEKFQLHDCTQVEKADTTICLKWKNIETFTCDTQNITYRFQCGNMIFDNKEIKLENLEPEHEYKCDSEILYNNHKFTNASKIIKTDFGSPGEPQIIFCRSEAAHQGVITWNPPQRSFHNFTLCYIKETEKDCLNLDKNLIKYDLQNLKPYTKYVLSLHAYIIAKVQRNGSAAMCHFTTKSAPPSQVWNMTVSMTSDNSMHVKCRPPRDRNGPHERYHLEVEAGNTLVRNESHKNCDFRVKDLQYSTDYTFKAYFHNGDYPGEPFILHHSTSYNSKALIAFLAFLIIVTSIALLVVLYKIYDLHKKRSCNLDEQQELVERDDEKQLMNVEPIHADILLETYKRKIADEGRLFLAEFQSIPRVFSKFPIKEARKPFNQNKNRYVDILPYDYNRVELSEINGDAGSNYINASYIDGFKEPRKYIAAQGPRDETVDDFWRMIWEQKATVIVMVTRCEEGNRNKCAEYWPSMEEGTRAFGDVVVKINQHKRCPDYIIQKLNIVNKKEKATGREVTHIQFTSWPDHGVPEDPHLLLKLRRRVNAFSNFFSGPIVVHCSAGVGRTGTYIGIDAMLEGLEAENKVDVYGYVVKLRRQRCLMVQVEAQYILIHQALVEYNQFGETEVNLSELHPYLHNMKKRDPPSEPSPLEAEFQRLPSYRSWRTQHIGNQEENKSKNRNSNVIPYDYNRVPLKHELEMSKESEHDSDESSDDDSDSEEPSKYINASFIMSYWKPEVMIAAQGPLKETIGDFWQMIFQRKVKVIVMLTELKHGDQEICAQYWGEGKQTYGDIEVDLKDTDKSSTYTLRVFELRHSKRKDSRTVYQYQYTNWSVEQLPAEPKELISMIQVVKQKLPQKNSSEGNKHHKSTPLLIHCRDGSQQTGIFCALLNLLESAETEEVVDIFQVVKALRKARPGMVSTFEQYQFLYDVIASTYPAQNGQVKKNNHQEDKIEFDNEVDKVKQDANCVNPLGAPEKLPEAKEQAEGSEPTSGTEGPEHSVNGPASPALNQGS

[5] = DRUGMATRIX: Sigma2 radioligand binding (ligand: [3H] Ifenprodil); format: cell membranes, Rattus norvegicus, Wistar, Brain, Membrane; settings: Not Active = under 50% inhibition at 10 µM
Melanocortin receptor 5 = Melanocortin receptor 5 (Homo sapiens, UniProt P33032); format: cell membranes, Membrane; settings: hek293; further: in other assays of this panel Not Active means under 50% inhibition at 10 µM
D(3) dopamine receptor = D(3) dopamine receptor (Homo sapiens, UniProt P35462); experiment: DRUGMATRIX: Dopamine D3 radioligand binding (ligand: [3H] Spiperone); format: cell membranes, CHO, Membrane
Sequence of D(3) dopamine receptor (P35462 whole entry): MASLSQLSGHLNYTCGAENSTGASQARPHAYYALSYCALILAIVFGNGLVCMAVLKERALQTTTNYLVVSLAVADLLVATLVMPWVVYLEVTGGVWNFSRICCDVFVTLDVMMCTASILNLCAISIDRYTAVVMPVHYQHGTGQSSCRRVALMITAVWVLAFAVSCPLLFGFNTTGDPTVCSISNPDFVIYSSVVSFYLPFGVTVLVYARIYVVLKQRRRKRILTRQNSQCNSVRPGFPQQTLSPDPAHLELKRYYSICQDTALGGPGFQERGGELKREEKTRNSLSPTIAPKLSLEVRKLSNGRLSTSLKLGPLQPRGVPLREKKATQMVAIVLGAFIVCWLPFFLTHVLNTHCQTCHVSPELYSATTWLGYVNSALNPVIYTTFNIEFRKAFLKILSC

Sequence of Melanocortin receptor 5 (P33032 whole entry): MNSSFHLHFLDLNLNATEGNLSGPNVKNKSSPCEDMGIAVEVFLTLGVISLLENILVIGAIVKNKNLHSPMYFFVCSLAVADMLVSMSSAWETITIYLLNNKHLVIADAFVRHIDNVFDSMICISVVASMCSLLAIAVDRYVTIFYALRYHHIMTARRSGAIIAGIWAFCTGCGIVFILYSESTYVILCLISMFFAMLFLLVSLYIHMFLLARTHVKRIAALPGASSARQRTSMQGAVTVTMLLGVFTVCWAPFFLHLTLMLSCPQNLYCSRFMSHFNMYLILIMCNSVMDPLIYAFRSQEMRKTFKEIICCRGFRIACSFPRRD
Sequence of 5-hydroxytryptamine receptor 6 (P50406 whole entry): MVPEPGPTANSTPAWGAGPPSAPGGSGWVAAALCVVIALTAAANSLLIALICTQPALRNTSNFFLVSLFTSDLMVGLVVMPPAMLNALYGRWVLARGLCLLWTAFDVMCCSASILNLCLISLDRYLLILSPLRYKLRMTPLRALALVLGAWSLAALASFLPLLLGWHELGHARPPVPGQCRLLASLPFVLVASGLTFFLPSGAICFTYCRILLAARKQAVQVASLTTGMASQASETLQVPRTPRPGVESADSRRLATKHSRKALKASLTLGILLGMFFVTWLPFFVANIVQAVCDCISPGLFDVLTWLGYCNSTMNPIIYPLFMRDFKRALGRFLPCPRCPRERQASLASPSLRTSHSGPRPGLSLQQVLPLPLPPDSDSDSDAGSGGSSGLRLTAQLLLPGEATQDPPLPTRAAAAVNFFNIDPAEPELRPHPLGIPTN
Sequence of Melanocortin receptor 4 (P32245 whole entry): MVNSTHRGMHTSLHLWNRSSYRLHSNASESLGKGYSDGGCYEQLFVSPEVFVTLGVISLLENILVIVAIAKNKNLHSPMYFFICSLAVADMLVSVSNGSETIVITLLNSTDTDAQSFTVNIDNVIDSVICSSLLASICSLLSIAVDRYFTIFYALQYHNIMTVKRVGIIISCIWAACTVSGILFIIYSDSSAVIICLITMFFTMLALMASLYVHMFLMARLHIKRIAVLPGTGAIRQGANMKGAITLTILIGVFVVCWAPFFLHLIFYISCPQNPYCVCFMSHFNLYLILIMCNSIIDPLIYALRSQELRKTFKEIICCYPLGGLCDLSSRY
Sequence of Cytochrome P450 2C19 (P33261 whole entry): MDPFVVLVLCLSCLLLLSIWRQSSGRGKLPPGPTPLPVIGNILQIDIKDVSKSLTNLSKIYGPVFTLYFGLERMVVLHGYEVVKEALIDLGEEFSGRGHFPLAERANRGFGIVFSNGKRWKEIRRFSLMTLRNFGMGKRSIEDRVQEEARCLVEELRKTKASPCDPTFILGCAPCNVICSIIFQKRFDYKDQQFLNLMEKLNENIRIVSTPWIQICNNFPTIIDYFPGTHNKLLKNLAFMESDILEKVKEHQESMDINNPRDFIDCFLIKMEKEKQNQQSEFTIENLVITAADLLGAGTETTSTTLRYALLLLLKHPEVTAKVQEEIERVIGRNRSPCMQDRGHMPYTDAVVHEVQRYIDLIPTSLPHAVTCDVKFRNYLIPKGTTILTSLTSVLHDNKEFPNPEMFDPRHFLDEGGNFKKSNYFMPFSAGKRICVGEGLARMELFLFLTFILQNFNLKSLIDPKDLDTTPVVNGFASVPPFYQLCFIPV

Row | SMILES | IC50 (Cytochrome P450 2C19) | Ki (Cytochrome P450 2C19) | IC50 (Melanocortin receptor 4) | IC50 ([1]; hela) | IC50 (Calcitonin receptor) | IC50 [2] | Ki [2] | IC50 [3] | IC50 [4] | IC50 [5] | Ki [5] | IC50 (Melanocortin receptor 5) | IC50 (D(3) dopamine receptor; cho) | IC50 ([1]; read-out: IC50) [nM] | Ki ([1]; read-out: Ki) [nM] | IC50 (D(3) dopamine receptor; read-out: IC50) [nM] | Ki (D(3) dopamine receptor; read-out: Ki) [nM]
1 | Cc1cccc(Nc2ccncc2S(=O)(=O)NC(=O)NC(C)C)c1 [TORSEMIDE] | Not Active | Not Active | Not Active | Not Active | Not Active | Not Active | Not Active | Not Active | Not Active | Not Active | Not Active | Not Active | Not Active |  |  |  | 
2 | [Cl-].[Cl-].[Zn+2] [ZINC CHLORIDE] | Not Active | Not Active | Not Active | Not Active | Not Active | Not Active | Not Active | Not Active | Not Active | Not Active | Not Active | Not Active | Not Active |  |  |  | 
3 | CN1C(C(=O)Nc2ccccn2)=C(O)c2sccc2S1(=O)=O [TENOXICAM] | Not Active | Not Active | Not Active | Not Active | Not Active | Not Active | Not Active | Not Active | Not Active | Not Active | Not Active | Not Active | Not Active |  |  |  | 
4 | COc1cc(NS(=O)(=O)c2ccc(N)cc2)nc(OC)n1 [SULFADIMETHOXINE] | Not Active | Not Active | Not Active |  | Not Active | Not Active | Not Active | Not Active | Not Active | Not Active | Not Active | Not Active | Not Active | 1340 | 622 |  | 
5 | CC(=O)N[C@@H]1[C@H](Oc2c3cc4cc2Oc2ccc(cc2Cl)[C@@H](O[C@@H]2O[C@@H](CO)[C@@H](O)[C@H](O)[C@@H]2NC(C)=O)[C@@H]2NC(=O)[C@H](NC(=O)[C@@H]4NC(=O)[C@H]4NC(=O)[C@@H](Cc5ccc(c(Cl)c5)O3)NC(=O)[C@H](N)c3ccc(O)c(c3)Oc3cc(O)cc4c3)c3ccc(O)c(c3)-c3c(O[C@H]4O[C@H](CO)[C@@H](O)[C@@H](O)[C@@H]4O)cc(O)cc3[C@@H](C(=O)O)NC2=O)O[C@@H](CO)[C@@H](O)[C@@H]1O | Not Active | Not Active | Not Active | Not Active | Not Active | Not Active | Not Active | Not Active | Not Active | Not Active | Not Active | Not Active | Not Active |  |  |  | 
6 | O=C1CCC(N2C(=O)c3ccccc3C2=O)C(=O)N1 (stereo unspecified) [THALIDOMIDE] | Not Active | Not Active | Not Active | Not Active | Not Active | Not Active | Not Active | Not Active | Not Active | Not Active | Not Active | Not Active | Not Active |  |  |  | 
7 | CC1=C(CC(=O)O)c2cc(F)ccc2/C1=C\c1ccc([S+](C)[O-])cc1 (stereo unspecified) | Not Active | Not Active | Not Active | Not Active | Not Active | Not Active | Not Active | Not Active | Not Active | Not Active | Not Active | Not Active | Not Active |  |  |  | 
8 | CC(C)C[C@H](NC(=O)[C@@H](O)[C@H](N)Cc1ccccc1)C(=O)O [UBENIMEX] | Not Active | Not Active | Not Active | Not Active | Not Active | Not Active | Not Active | Not Active | Not Active | Not Active | Not Active | Not Active | Not Active |  |  |  | 
9 | CC(=O)CC(c1ccccc1)c1c(O)c2ccccc2oc1=O (stereo unspecified) [WARFARIN] | Not Active | Not Active | Not Active | Not Active | Not Active | Not Active | Not Active | Not Active | Not Active | Not Active | Not Active | Not Active | Not Active |  |  |  | 
10 | COCCCOc1ccnc(C[S+]([O-])c2nc3ccccc3[nH]2)c1C (stereo unspecified) [RABEPRAZOLE] | Not Active | Not Active | Not Active | Not Active | Not Active | Not Active | Not Active | Not Active | Not Active | Not Active | Not Active | Not Active |  |  |  | 2330 | 790
11 | N[C@H](CSC(=S)NCc1ccccc1)C(=O)O | Not Active | Not Active | Not Active | Not Active | Not Active | Not Active | Not Active | Not Active | Not Active | Not Active | Not Active | Not Active | Not Active |  |  |  | 
12 | [H]/N=C(/N)N[C@H]1[C@H](O)[C@@H](O)[C@H](O[C@@H]2O[C@@H](C)[C@](O)(C=O)[C@H]2O[C@@H]2O[C@@H](CO)[C@H](O)[C@@H](O)[C@@H]2NC)[C@@H](N/C(N)=N\[H])[C@@H]1O [STREPTOMYCIN] | Not Active | Not Active | Not Active | Not Active | Not Active | Not Active | Not Active | Not Active | Not Active | Not Active | Not Active | Not Active | Not Active |  |  |  | 
13 | CO[C@H]1/C=C/O[C@@]2(C)Oc3c(C)c(O)c4c(c3C2=O)C2=NC3(CCN(CC(C)C)CC3)NC2=C(NC(=O)/C(C)=C\C=C\[C@H](C)[C@H](O)[C@@H](C)[C@@H](O)[C@@H](C)[C@H](OC(C)=O)[C@@H]1C)C4=O [RIFABUTIN] | Not Active | Not Active | Not Active | Not Active | Not Active | Not Active | Not Active | Not Active | Not Active | Not Active | Not Active | Not Active | Not Active |  |  |  | 
